The source of these data is patent US4690937A, “Anti-hypertensive agents” (University of Miami, priority 1979, dated 1987).

Where two headings read alike, the source gives them in different places. Residues, ends and D or L forms follow the SMILES beside them. *: point of attachment. Bz = O=C(c1ccccc1)*

In assay [1] the target is T1, ACE (Homo sapiens, UniProt P12821).
T1 construct: same enzyme (human urinary ACE); from tissue; host or cells: human urine (purified as described by Ryan et al., Tissue and Cell 10, 555 (1978))
T1 sequence (P12821 30-1232 limits assumed): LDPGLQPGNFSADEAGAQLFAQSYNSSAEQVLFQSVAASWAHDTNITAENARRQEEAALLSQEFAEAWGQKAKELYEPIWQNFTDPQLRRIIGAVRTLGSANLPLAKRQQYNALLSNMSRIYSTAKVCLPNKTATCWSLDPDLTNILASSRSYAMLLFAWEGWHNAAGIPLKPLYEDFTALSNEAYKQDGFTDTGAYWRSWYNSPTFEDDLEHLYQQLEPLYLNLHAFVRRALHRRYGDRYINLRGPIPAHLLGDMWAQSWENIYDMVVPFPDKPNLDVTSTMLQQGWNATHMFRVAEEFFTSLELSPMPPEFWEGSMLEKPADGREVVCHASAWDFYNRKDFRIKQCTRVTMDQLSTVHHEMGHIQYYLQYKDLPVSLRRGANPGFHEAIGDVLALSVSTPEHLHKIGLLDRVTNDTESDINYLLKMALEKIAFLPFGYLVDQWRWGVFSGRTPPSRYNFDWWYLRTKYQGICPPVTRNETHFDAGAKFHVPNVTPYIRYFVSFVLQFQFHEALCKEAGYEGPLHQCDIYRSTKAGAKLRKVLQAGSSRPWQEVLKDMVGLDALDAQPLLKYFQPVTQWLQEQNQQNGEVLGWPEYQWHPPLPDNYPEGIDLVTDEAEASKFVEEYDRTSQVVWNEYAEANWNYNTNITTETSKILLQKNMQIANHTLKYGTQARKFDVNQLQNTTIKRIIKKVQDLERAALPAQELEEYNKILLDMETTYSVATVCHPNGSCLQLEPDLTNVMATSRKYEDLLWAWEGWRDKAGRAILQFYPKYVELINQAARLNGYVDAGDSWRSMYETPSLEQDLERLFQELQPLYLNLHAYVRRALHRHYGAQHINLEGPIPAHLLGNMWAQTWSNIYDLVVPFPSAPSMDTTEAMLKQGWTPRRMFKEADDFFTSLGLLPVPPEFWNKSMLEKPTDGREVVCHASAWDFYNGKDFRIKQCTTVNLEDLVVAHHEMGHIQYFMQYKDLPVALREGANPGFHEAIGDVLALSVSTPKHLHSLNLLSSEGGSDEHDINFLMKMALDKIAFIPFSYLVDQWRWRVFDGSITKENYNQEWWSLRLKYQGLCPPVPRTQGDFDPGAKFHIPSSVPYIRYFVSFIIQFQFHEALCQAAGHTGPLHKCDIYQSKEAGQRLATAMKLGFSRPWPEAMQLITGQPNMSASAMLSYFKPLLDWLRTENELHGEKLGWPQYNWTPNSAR
The assay can be described thus: ACE activity assay in vitro (I50, hydrolysis of [3H]-Benzoyl-GlyHisLeu). It is filed as biochemical. Here is the method:
These factors include the source of enzyme, its purity, the substrate used and its concentration, and the composition of the assay buffer. All I50 data reported herein have been performed with the same assay system and same enzyme (human urinary ACE) and with an approximately 1/2 Km level of substrate and are therefore internaly consistent.
To initiate the assay, 40 μl of enzyme and 10 μl of water or inhibitor dissolved in water were preincubated for five minutes at 37° C. […] To terminate the reaction, 1 ml of 0.1M HCl was added, following which 1 ml of ethyl acetate was added. The mixture was agitated on a rotary mixer and centrifuged briefly to separate the phases.
An aliquot, 500μl, of the ethyl acetate layer was transferred to a liquid scintillation vial containing 10 ml of Riafluor, trademark New England Nuclear Corporation, Boston, Mass. For determination of I50 values, enzyme activity in the presence of inhibitor at a series of different concentrations was compared to activity in the absence of inhibitor.

Assay [2] deals with mean arterial blood pressure response to angiotensin I. As to the kind of experiment: Intravenous effectiveness: blood pressure response to angiotensin I in anesthetized rats. The class given is in vivo. As to conditions: rat, in words. Here is the method: (§1) Rats (210-290 g body weight) were fasted overnight and then anesthetized with intraperitoneal pentobarbital, 50-60 mg/kg. Tracheostomy was performed and the animals were ventilated mechanically. A cannula was inserted into a femoral vein for injection of angiotensin I, and a second cannula was inserted into a common carotid artery for direct measurement of arterial blood pressure. Heparin, 1,000 units, was injected via the femoral vein to prevent coagulation. Blood pressure was measured with a pressure transducer connected to a polygraph. The rats were injected with […] of angiotensin I in 20μl of 0.9 g % NaCl; an amount of angiotensin I sufficient to raise mean arterial blood pressure by 25 mm Hg. After the responsiveness of a given rat to angiotensin I was established, the named compound at 20 μmol/kg (drug dissolved in 0.15 ml of H2 O plus 10μl of 1 N NaHCO3), was given via a stomach tube. At timed intervals, the effects of 400 ng/kg of angiotensin I on mean arterial blood pressure were tested. Results are shown below:
Anesthetized rats were prepared as described in Example 18. The named compound was administered intravenously via a femoral vein, at the stated dose, in 15 μl of 0.01 N sodium bicarbonate. […] The time required for recovery of one half the lost responsiveness to angiotensin I, following injection of the named compound, is designated t1/2. […]

Assay [3] shares this test system. As to the kind of experiment: Oral effectiveness: blood pressure response to angiotensin I in anesthetized rats. The class given is in vivo. The note with it: rat, oral 20 μmol/kg, -5 min (pre-dose control, 25 mm Hg). Here is the method:
as §1, with “tested.” for “tested. Results are shown below:”

Assay [4] has as its system ACE. The note with it: disulfide formed on standing of aqueous solution; cited from earlier work.
The target in assay [5] is T1, ACE. As to conditions: previously disclosed compounds of copending applications, read-out: I50, cited from earlier work.

On ACE [1] (ACE purified from human urine, pH 8.0, 37° C., Benzoyl-GlyHisLeu 1×10^-4 M), `C[C@H](CSC(=O)[C@H](Cc1c[nH]c2ccccc12)NC(=O)c1ccccc1)C(=O)N1CCC[C@H]1C(=O)O` [N^α -[3-(Nα-benzoyl-L-tryptophylthio)-2-D-methylpropanoyl]-L-proline] came in with an IC50 of 9.4 nM. Further, the “Response to intravenous administration (responsiveness to Angiotensin I, 400 ng/kg)” value in assay [2] is recorded as “rapid decrease in responsiveness to Angiotensin I, 400 ng/kg, followed by a gradual recovery to the pretreatment level of responsiveness”. Besides, in assay [3], the “Blood Pressure Response to 400 ng/kg of Angiotensin I” value was 100 % of Control. In general, Km refers to the concentration of substrate that gives half-maximal velocity. On to `CC(C)C[C@H](NC(=O)[C@H](Cc1cnc[nH]1)NC(=O)CNC(=O)c1ccccc1)C(=O)O` [Benzoyl-GlyHisLeu, reference compound] (Bz-Gly-His-Leu-OH), for which, at ACE [1] (substrate Benzoyl-GlyHisLeu, 0.05M Hepes pH 8.0, 0.1M NaCl, 0.75M Na2 SO4), the Km is approximately 200 µM.

For the compound `C[C@H](CSSC[C@@H](C)C(=O)N1CCC[C@H]1C(=O)O)C(=O)N1CCC[C@H]1C(=O)O` [disulfide], in the assay on ACE [4], the “ACE inhibition by the disulfide dimer” value is “largely inactive as an inhibitor”. On to `O=C(N[C@@H](Cc1ccccc1)C(=O)SCCC(=O)N1CCC[C@H]1C(=O)O)c1ccccc1`, for which the IC50 on ACE [5] (approximate) was approximately 700 nM. Regarding `CC(SC(=O)[C@H](Cc1ccccc1)NC(=O)c1ccccc1)C(=O)N1CC=C[C@H]1C(=O)O` (stereo partly drawn) [N-(2-benzoylphenylalanylthiopropanoyl)-L-3,4-dehydroproline], the IC50 at ACE [5] (for racemic compound) was 3 nM.
